Experimental data taken from patent US20020034725A1, “SENSITIZATION OF CELLS TO RADIATION AND AND CHEMOTHERAPY” (priority 1996, published 2002).

Columns and labels:
[1] = tested on: H-ras^v12 CVLL; assay: Western blot of prenylation of chimeric H-ras in REF-GG cells; type: cell-based, rat; details: up to 10 μM
From the text: The oncogene-transfected cells used in this study were all derived from early passage rat embryo fibroblast (REF) by transfection with the pEJ plasmid containing the H-ras gene isolated from the EJ bladder carcinoma. This vector was introduced by calcium phosphate DNA transfer into primary REF, either alone or together with the pMC29 vector containing v-myc. One clone containing both the introduced H-ras gene and the v-myc genes is 3.7 (McKenna et al., 1990, Cancer Res. 50:97-102). 4R and 5R cells were obtained as rare transformants after transfection with the pEJ plasmid alone (McKenna et al., 1993, supra). MR4 cells were immortalized by transfection with an expression vector comprising v-myc linked to a neomycin-resistant selectable marker (McKenna et al., 1991, Radiat. Res. 125:283-287). REF-GG cells were obtained by transforming REF cells with a chimeric H-ras(v12) in which the CAAX motif is CVLL. All cell lines were mycoplasma free.
Cells were lysed in culture dishes with 1 x reducing Laemmli sample buffer. Samples were boiled, sheared and clarified by centrifugation at 14,000 rpm in a microfuge before storage at −20° C. Samples containing equal amounts of protein were separated on a 12% SDS polyacrylamide gel and electrophoretically transferred to nitrocellulose membranes. […]

[2] = tested on: murine prostate tumor cells cultured from a metastic lung nodule; assay: Surviving fraction at 2 Gray, murine prostate tumor cells; type: cell-based, mouse; details: 5 μM FTI-277
Method: FIG. 14C is a series of graphs depicting the effect of 5 μM FTI-277 and 2 Gray irradiation on murine prostate tumor cells cultured from a metastic lung nodule. Cells were referred at 24 hours following irradiation in order to dilute the concentration of the inhibitor to 0.5 μM. The surviving cell fraction was assessed as described in FIG. 14B. The correlation coefficient for linear regression analysis (r^2) was greater than 0.95 in all cases.

## COC(=O)[C@H](CCSC)NC(=O)c1ccc(NC[C@@H](N)CS)cc1-c1ccccc1 [FTI-277]
[1]
  mobility of H-ras-CVLL: no change in the mobility of H-ras-CVLL
[2]
  survival after 2 Gray irradiation: 0.36
